Data reported in patent US20170150719A1, “FUNGICIDAL PYRAZOLES AND THEIR MIXTURES” (E I DU PONT DE NEMOURS AND COMPANY, priority 2010, published 2017).
Marks after values point to notes of the source that are not given here.

Columns and labels:
Septoria tritici = assay: Test F: wheat leaf blotch, preventive spray on wheat seedlings, visual disease rating; type: in vivo; set-up: Test F rating (disease control), value marked *: concentration or dose not given beside the values; pest or weed control: dose or concentration left out as unconfirmed; details: for Test F rating (% disease control) / pest or weed control: preventive spray; for Test F rating (% disease control): rating without asterisk; for pest or weed control: other test suspension concentration than unmarked ratings
Description: (§1) A hyphen (-) indicates no test results.

[1] = system: Puccinia recondita f. sp. tritici; assay: Test G: wheat leaf rust, spray after inoculation (curative) on wheat seedlings, visual disease rating; type: in vivo; details: 100 = 100% disease control; for Test G rating (% disease control): spray after inoculation, rating without asterisk
Description: as §1

[2] = system: Puccinia recondita f. sp. tritici; assay: Test H: wheat leaf rust, preventive spray on wheat seedlings, visual disease rating; details: for Test H rating (% disease control) / Test H rating (disease control): wheat leaf rust; for Test H rating (% disease control): preventive spray, rating without asterisk; for pest or weed control at 40 µg/mL: read-out: Test H rating (% disease control), marked *, wheat leaf rust, preventive spray, rating marked with asterisk (*), other test suspension concentration than unmarked ratings; for Test H rating (disease control): sprayed the day before inoculation
Description: General protocol for preparing test suspensions for Tests A-I: the test compounds were first dissolved in acetone in an amount equal to 3% of the final volume and then suspended at the desired concentration (in ppm) in acetone and purified water (50/50 mix by volume) containing 250 ppm of the surfactant Trem® 014 (polyhydric alcohol esters). The resulting test suspensions were then used in Tests A-I. Each test was conducted in triplicate, and the results were averaged. Spraying a 200 ppm test suspension to the point of run-off on the test plants was the equivalent of a rate of about 800 g/ha. Unless otherwise indicated, the rating values indicate a 200 ppm test suspension was used. (An asterisk “*” next to the rating value indicates a 40 ppm test suspension was used.)
The test suspension was sprayed to the point of run-off on wheat seedlings. The following day the seedlings were inoculated with a spore suspension of Puccinia recondita f. sp. tritici (the causal agent of wheat leaf rust) and incubated in a saturated atmosphere at 20° C. for 24 h, and then moved to a growth chamber at 20° C. for 6 days, after which time visual disease ratings were made.

Alternaria solani = assay: Test B: tomato early blight, preventive spray on tomato seedlings, visual disease rating; details: for Test B rating (% disease control) / Test B rating (disease control): tomato early blight, 100 = 100% disease control; for Test B rating (% disease control): preventive spray, rating without asterisk; for Test B rating (disease control): 0 = no disease control relative to the controls
[3] = system: Blumeria graminis f. sp. tritici; assay: Test I: wheat powdery mildew, preventive spray on wheat seedlings, visual disease rating; details: for Test I rating (% disease control): rating without asterisk; for pest or weed control at 40 µg/mL: read-out: Test I rating (% disease control), marked *, wheat powdery mildew, preventive spray
Septoria nodorum = assay: Test E: Septoria glume blotch, preventive spray on wheat seedlings, visual disease rating; details: for Test E rating (% disease control) / Test E rating (% disease control), marked *: Septoria glume blotch on wheat, preventive spray; for Test E rating (% disease control): rating without asterisk; for Test E rating (% disease control), marked *: rating marked with asterisk (*), other test suspension concentration than unmarked ratings; for Test E rating (disease control): Septoria glume blotch
Botrytis cinerea = assay: Test A: tomato Botrytis, preventive spray on tomato seedlings, visual disease rating; details: for pest or weed control at 40 µg/mL: Botrytis cinerea, in Solanum lycopersicum, read-out: Test A rating (% disease control), marked *, tomato Botrytis, preventive spray, rating marked with asterisk (*), other test suspension concentration than unmarked ratings; for Test A rating (disease control) / Test A rating (% disease control): tomato Botrytis, 100 = 100% disease control; for Test A rating (disease control): 0 = no disease control relative to the controls; for Test A rating (% disease control): preventive spray, 0 = no control relative to controls, rating without asterisk
[4] = wheat powdery mildew, preventive spray, 100 = 100% disease control
[5] = Zymoseptoria tritici, rating marked with asterisk (*)
[6] = Blumeria graminis, in Triticum aestivum, rating marked with asterisk (*), other test suspension concentration than unmarked ratings
[7] = 100 = 100% disease control, 0 = no disease control
[8] = wheat powdery mildew, 100 = 100% disease control, 0 = no disease control relative to the controls
[9] = 100 = 100% disease control, 0 = no disease control relative to the controls
[10] = sprayed after inoculation, 0 = no disease control

Row | Compound | Test F rating (% disease control) (Septoria tritici; 100 = 100% disease control) [%] | Test H rating (% disease control) ([2]; 100 = 100% disease control) [%] | Test I rating (% disease control) [3, 4] [%] | pest or weed control (Septoria tritici; [5]) [%] | pest or weed control at 40 µg/mL [2] [%] | Test E rating (% disease control), marked * (Septoria nodorum) | Test A rating (% disease control) (Botrytis cinerea) [%] | also measured
1 | COc1ccc(-c2c(C)nn(C)c2C(O)c2c(F)cc(Cl)cc2F)c(Cl)c1 (racemic) [compound 224] | 100 | 100 | 94 |  |  |  |  | Test G rating (% disease control) [1]: 54%; Test B rating (% disease control) (Alternaria solani): 100%; Test E rating (% disease control) (Septoria nodorum; 100 = 100% disease control): 89%
2 | COc1ccc(-c2c(C)nn(C)c2Nc2c(C)cccc2Cl)c(Cl)c1 [Compound 262, 4-(2-chloro-4-methoxyphenyl)-N-(2-chloro-6-methylphenyl)-1,3-dimethyl-1H-pyrazol-5-amine] |  |  |  | 100 | 85 | 0* % |  | pest or weed control at 40 µg/mL (Botrytis cinerea): 97%; pest or weed control at 40 µg/mL [3, 6]: 79%
3 | COc1ccc(Oc2c(-c3ccc(F)cc3Cl)c(C)nn2C)c(F)c1 [compound 5] |  |  |  |  |  |  |  | Test F rating (disease control), value marked * (Septoria tritici; rating marked with asterisk (*), other test condition, not explained in the text shown): 97* %; Test H rating (disease control) [2, 7]: 100%; Test A rating (disease control) (Botrytis cinerea): 98%; Test B rating (disease control) (Alternaria solani): 100%; Test I rating (disease control) [3, 8]: 99%; Test E rating (disease control) (Septoria nodorum; [9]): 97%
4 | CCOc1ccc(-c2c(C)nn(C)c2Nc2ccc(F)cc2F)c(F)c1 [Compound 193] | 100 | 27 | 92 |  |  |  |  | Test G rating (% disease control) [1]: 0%; Test B rating (% disease control) (Alternaria solani): 58%; Test E rating (% disease control) (Septoria nodorum; 100 = 100% disease control): 0%
5 | COc1ccc(-c2c(C)nn(C)c2Nc2c(C)cccc2Br)c(F)c1 [Compound 258, N-(2-bromo-6-methylphenyl)-4-(2-fluoro-4-methoxyphenyl)-1,3-dimethyl-1H-pyrazol-5-amine] |  |  |  | 100 | 9 | 0* % |  | pest or weed control at 40 µg/mL (Botrytis cinerea): 100%; pest or weed control at 40 µg/mL [3, 6]: 0%
6 | Cc1nn(C)c(C(O)c2ccc(C#N)cc2F)c1-c1ccc(F)cc1Cl (racemic) [compound 179] |  | 99 | 0 |  |  |  | 96 | Test G rating (% disease control) [1]: 9%; Test B rating (% disease control) (Alternaria solani): 16%; Test E rating (% disease control) (Septoria nodorum; 100 = 100% disease control): 0%
7 | COc1ccc(-c2c(C)nn(C)c2Nc2c(C)cccc2F)c(F)c1 [Compound 259, 4-(2-fluoro-4-methoxyphenyl)-N-(2-fluoro-6-methylphenyl)-1,3-dimethyl-1H-pyrazol-5-amine] |  |  |  | 100 | 82 | 0* % |  | pest or weed control at 40 µg/mL (Botrytis cinerea): 100%; pest or weed control at 40 µg/mL [3, 6]: 90%
8 | COc1ccc(-c2c(C)nn(C)c2Nc2c(C)cccc2Cl)c(F)c1 [Compound 257, N-(2-chloro-6-methylphenyl)-4-(2-fluoro-4-methoxyphenyl)-1,3-dimethyl-1H-pyrazol-5-amine] |  |  |  | 100 | 63 | 31* % |  | pest or weed control at 40 µg/mL (Botrytis cinerea): 100%; pest or weed control at 40 µg/mL [3, 6]: 27%
9 | Cc1nn(C)c(C(O)c2ccc(F)cc2Br)c1-c1ccc(F)cc1Cl (stereo not drawn) [Compound 153, α-(2-bromo-4-fluorophenyl)-4-(2-chloro-4-fluorophenyl)-1,3-dimethyl-1H-pyrazole-5-methanol] |  |  |  |  |  |  |  | pest or weed control at 200 µg/mL (Septoria tritici; Zymoseptoria tritici, 100 = 100% disease control, 0 = no disease control relative to the controls): 100%; pest or weed control at 200 µg/mL [1, 10]: 0%; pest or weed control at 200 µg/mL ([2]; read-out: Test H rating (disease control), wheat leaf rust, sprayed the day before inoculation, 100 = 100% disease control, 0 = no disease control): 96%; pest or weed control at 200 µg/mL (Alternaria solani; Alternaria solani, in Solanum lycopersicum, read-out: Test B rating (disease control)): 0%; pest or weed control at 200 µg/mL ([3]; Blumeria graminis, in Triticum aestivum, read-out: Test I rating (disease control), wheat powdery mildew, 100 = 100% disease control, 0 = no disease control relative to the controls): 0%; pest or weed control at 200 µg/mL (Septoria nodorum; Parastagonospora nodorum, in Triticum aestivum, read-out: Test E rating (disease control), Septoria glume blotch, 100 = 100% disease control, 0 = no disease control relative to the controls): 0%
10 | Cc1nn(C)c(Nc2c(F)cc(F)cc2Cl)c1-c1ccc(Br)cc1F [compound 234] | 100 | 91 | 79 |  |  |  | 97 | 
11 | COc1ccc(-c2c(C)nn(C)c2Nc2c(F)cccc2Cl)c(F)c1 [Compound 260, N-(2-chloro-6-fluorophenyl)-4-(2-fluoro-4-methoxyphenyl)-1,3-dimethyl-1H-pyrazol-5-amine] |  |  |  | 100 | 85 | 0* % |  | pest or weed control at 40 µg/mL (Botrytis cinerea): 100%; pest or weed control at 40 µg/mL [3, 6]: 90%
12 | COc1ccc(-c2c(C)nn(C)c2Nc2c(Cl)cc(F)cc2Cl)c(F)c1 [compound 194] | 100 | 95 | 63 |  |  |  |  | Test G rating (% disease control) [1]: 0%; Test B rating (% disease control) (Alternaria solani): 93%; Test E rating (% disease control) (Septoria nodorum; 100 = 100% disease control): 87%
13 | Cc1nn(C)c(C(O)c2ccc(Cl)cc2F)c1-c1ccc(F)cc1Cl (racemic) [compound 177] |  |  |  |  |  |  |  | Test G rating (disease control) [1, 10]: 0%; Test H rating (disease control) [2, 7]: 0%; Test A rating (disease control) (Botrytis cinerea): 99%; Test B rating (disease control) (Alternaria solani): 0%; Test I rating (disease control) [3, 8]: 48%; Test E rating (disease control) (Septoria nodorum; [9]): 0%
14 | Cc1nn(C)c(Nc2c(F)cc(F)cc2Br)c1-c1ccc(Br)cc1F [compound 235] | 100 | 96 | 90 |  |  |  | 99 | 
15 | Cc1nn(C)c(Nc2ccccc2I)c1-c1ccc(F)cc1F [compound 246] | 100 | 98 | 99 |  |  |  | 100 | 
16 | COc1ccc(-c2c(C)nn(C)c2Nc2c(F)cccc2Br)c(F)c1 [Compound 261, N-(2-bromo-6-fluorophenyl)-4-(2-fluoro-4-methoxyphenyl)-1,3-dimethyl-1H-pyrazol-5-amine] |  |  |  | 100 | 97 | 0* % |  | pest or weed control at 40 µg/mL [3, 6]: 95%
17 | Cc1nn(C)c(Nc2c(F)cc(Cl)cc2F)c1-c1ccc(Br)cc1F [compound 236] | 100 | 28 | 0 |  |  |  | 47 | 
18 | Cc1nn(C)c(Nc2ccc(F)cc2Cl)c1-c1ccc(C#N)cc1F [Compound 248] | 100 | 99 | 99 |  |  |  | 99 | 
19 | COc1ccc(-c2c(C)nn(C)c2Nc2c(C)cccc2Br)c(Cl)c1 [Compound 263, N-(2-bromo-6-methylphenyl)-4-(2-chloro-4-methoxyphenyl)-1,3-dimethyl-1H-pyrazol-5-amine] |  |  |  | 100 | 79 | 0* % |  | pest or weed control at 40 µg/mL (Botrytis cinerea): 99%; Test I rating (% disease control), marked * ([3]; wheat powdery mildew, preventive spray, rating marked with asterisk (*), other test suspension concentration than unmarked ratings): 13* %
20 | Cc1nn(C)c(Nc2c(Cl)cc(F)cc2Cl)c1-c1ccc(Br)cc1F [compound 233] | 100 | 91 | 89 |  |  |  | 36 | 
21 | Cc1nn(C)c(C(O)c2c(F)cc(F)cc2F)c1-c1ccc(F)cc1Cl (racemic) [compound 178] |  |  |  |  |  |  |  | Test G rating (disease control) [1, 10]: 98%; Test H rating (disease control) [2, 7]: 100%; Test A rating (disease control) (Botrytis cinerea): 100%; Test B rating (disease control) (Alternaria solani): 33%; Test I rating (disease control) [3, 8]: 74%; Test E rating (disease control) (Septoria nodorum; [9]): 0%
